For one test, the target named is T1, S1P1 receptor (Homo sapiens, UniProt P21453).
T1 construct: expressed in transfected cells; membrane preparation
Briefly: 35S-GTPγS binding assay using membrane preparation of CHO cell stably expressing S1P1 receptor. To be noted: agonist activity. It is filed as biochemical. The method, then: ^35s-GTPγS binding assay using membrane preparation of CHO cell stably expressing S1P1 receptor
A G protein-GTPγS binding test associated with a ligand was performed by using a membrane preparation which was obtained from a CHO cell which stably overexpressed S1P1 receptor. In a 96 well-micro-titer dish, the produced membrane protein and a compound which was diluted with a solvent such as DMSO or sphingosine-1-phosphate in various concentrations was incubated in a solution containing 20 mM of Tris-Cl (pH7.5), 100 mM of NaCl, 10 mM of MgCl2, 5μM of GDP, 0.1% of BSA, and […] of ^35s-GTPγS (specific radioactivity, 1250 Ci mmol). The binding was performed for 1 or more hours at room temperature, and the membrane was harvested on a GF/B filter plate by using a Millipore's MultiScreen Separation System to end the binding. After the filter plate was dried for 30 or more minutes, 25 μL of MicroScint-20 was added to each well, and the binding was measured by using the TopCount.
For the agonist activity of compound, the value of a well which a solvent was added to was set to a control value and compared with an increment of an evaluation compound-added well, so that the increment of each concentration of the compound was obtained. EC50 value was calculated under the definition that the value is an agonist concentration required to provide 50% of the maximum increment thereof. […]
For orientation: GTPγS resists hydrolysis and so accumulates on activated G proteins.

The next test addresses T2, S1P3 receptor (Homo sapiens, UniProt Q99500).
T2 construct: expressed in transfected cells; host or cells: CHO cells, transient transfection; membrane protein
Briefly: 35S-GTPγS binding assay using membrane preparation of CHO cell temporarily expressing S1P3 receptor. It is filed as biochemical. To be noted: agonist activity, membrane of CHO cell temporarily transfected with S1P3 gene. On the procedure: ^35s-GTPγS binding assay using membrane preparation of CHO cell of temporarily expressing S1P3 receptor
A GTPγS binding test associated with S1P3 receptor was performed by using the same method as that of the GTPγS binding test associated with S1P1 receptor. In the test, a membrane protein which was produced from a CHO cell in which S1P3 gene was temporarily transfected was used.
For the agonist activity of compound, the value of a well which a solvent was added to was set to a control value and compared with an increment of an evaluation compound-added well, so that the increment of each concentration of the compound was obtained. EC50 value was calculated under the definition that the value is an agonist concentration required to provide 50% of the highest increment thereof.

A further test relates to peripheral lymphocytes. Briefly: Evaluation of reduction in peripheral blood lymphocyte count. In kind it is in vivo. To be noted: 3 h; rat, oral; dose required to reduce the lymphocyte count by 50% in three hours from the administration. The method, then:
Evaluation of Reduction in Peripheral Blood Lymphocyte count
A compound or a solvent was orally administered to a rat. When 3, 6, 24, 48, and 72 hours had elapsed since the administration of compound, blood was withdrawn from its tail vein. All the blood samples were analyzed hematologically. The total count of peripheral lymphocytes was measured by using an auto-analyzer (Sysmex 2000Xi). The effect of each compound to the total count of peripheral lymphocytes was evaluated by using three or more rats in one group. The reduction in lymphocyte count caused by the administration of compound was compared with that caused by the administration of solvent to a rat group. Namely, the average lymphocyte count of a solvent-administered group was set to 100%, and a control value (%) was calculated from the average lymphocyte count of a compound-administered group. An ED50 value, that is, a dosed amount of the compound required to reduce the lymphocyte count by 50% in three hours from the administration was calculated from the dosed amount of the compound and the control value (%).

The subject of another test is adjuvant arthritis rat. Briefly: Adjuvant-induced arthritis model. To be noted: 504 h, Lewis female rats, oral once daily for 21 days, dose required to suppress swelling of hind paw by 50% on the 21-th day. It is filed as in vivo. The method, then: Adjuvant-Induced Arthritis Model
7-weeks old Lewis female rats are used for evaluation. The volume of a hind paw of a rat was measured. As an adjuvant, 500 μg/100 μL of M. tuberclulosis H37 RA (manufactured by Difco) is subcutaneously injected into the plantar of the left hind paw, so that an adjuvant arthritis rat is produced. A compound which is suspended in a 1% methylcellulose solution is forcibly oral-administered to the stomach by using an oral sonde one-time everyday for 21 days from the injection date of the adjuvant. The evaluation of arthritis is performed by measuring the volume of paw of each tested subject by using PLETHYSMOMETER (manufactured by UGO BASILE) and comparing the measured deta of a compound-administered group with those of a solvent-administered group. Swelling of the plantar portion of hind leg of the solvent-administered group was set to 100%, and a control value (%) was calculated from the swelling of the compound-administered group. An ED50 value, that is, a dosed amount of the compound required to suppress the swelling of the plantar portion of hind paw on the 21-th day from the administration date of the adjuvant by 50% was calculated from the dosed amount of the compound and the control value (%).

T1 sequence (P21453 whole entry): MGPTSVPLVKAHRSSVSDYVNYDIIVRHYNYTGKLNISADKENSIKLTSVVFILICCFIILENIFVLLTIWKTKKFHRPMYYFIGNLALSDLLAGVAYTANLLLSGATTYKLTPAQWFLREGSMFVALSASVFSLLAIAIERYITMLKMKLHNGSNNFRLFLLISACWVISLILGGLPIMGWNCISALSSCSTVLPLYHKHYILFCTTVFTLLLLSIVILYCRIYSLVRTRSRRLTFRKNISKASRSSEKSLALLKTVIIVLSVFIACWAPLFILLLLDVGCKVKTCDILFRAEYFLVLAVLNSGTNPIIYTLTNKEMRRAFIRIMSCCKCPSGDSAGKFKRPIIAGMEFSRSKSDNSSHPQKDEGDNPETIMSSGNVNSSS
T2 sequence (Q99500 whole entry): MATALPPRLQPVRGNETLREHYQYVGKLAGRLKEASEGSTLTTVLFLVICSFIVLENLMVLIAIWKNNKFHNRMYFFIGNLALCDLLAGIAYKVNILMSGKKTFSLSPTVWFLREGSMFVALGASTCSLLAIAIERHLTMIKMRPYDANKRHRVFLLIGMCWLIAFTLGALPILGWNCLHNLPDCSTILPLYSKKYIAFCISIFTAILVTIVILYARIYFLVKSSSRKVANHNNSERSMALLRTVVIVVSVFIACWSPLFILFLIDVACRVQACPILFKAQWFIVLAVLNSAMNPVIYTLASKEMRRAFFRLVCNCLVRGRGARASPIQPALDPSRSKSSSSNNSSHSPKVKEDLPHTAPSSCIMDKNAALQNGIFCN

`O=C(O)[C@H]1CCC[C@H](NCc2ccc(OCc3cc(-c4ccccc4)c(C(F)(F)F)s3)cc2)C1` [Example 4]: the values for the EC50 at S1P1 receptor and at S1P3 receptor were 34 nM and 870 nM, respectively.

In the case of `O=C(O)C1CC(NCc2ccc(OCc3cc(-c4ccccc4)c(C(F)(F)F)s3)cc2)C1` (stereo not shown) [Example 6], in the test on peripheral lymphocytes, the ED50 – broadly, the dose at which the effect has come halfway, by size or by number of responders – is 5.1 mg/kg.

As to `O=C(O)[C@H]1CC[C@H](NCc2ccc(OCc3cc(-c4ccccc4)c(C(F)(F)F)s3)cc2)C1` [Example 25], the EC50 (as a rule, the concentration that produces a half-maximal response) on S1P1 receptor stood at 4 nM; at S1P3 receptor it was 117 nM.

`CC(C)Cc1ccc(-c2nc(-c3ccc(CNCCC(=O)O)cc3)no2)cc1.Cl` [Example 40] registered an ED50 in the test on peripheral lymphocytes of 0.71 mg/kg. This molecule also displayed an EC50 at S1P1 receptor of 0.5 nM.

In turn, `CC(C)COc1ccc(-c2nc(-c3ccc(CNCCC(=O)O)cc3)no2)cc1C(F)(F)F.Cl` [Example 46] gave an ED50 in the test with peripheral lymphocytes of 2.1 mg/kg. The concentration for a half-maximal effect (EC50) at S1P1 receptor was 0.5 nM.

In the case of `Cc1cc(-c2nc(-c3ccc(CNCCC(=O)O)cc3)no2)ccc1-c1ccccc1.Cl` [Example 54], the ED50 with peripheral lymphocytes amounted to 0.44 mg/kg; with adjuvant arthritis rat it was 0.33 mg/kg. The molecule further showed an EC50 at S1P1 receptor of 0.34 nM.

Take `Cl.O=C(O)CCNCc1ccc(-c2noc(C3CCC(c4ccccc4)CC3)n2)cc1` (stereo not shown) [Example 61]: in the test on peripheral lymphocytes, the median effective dose (ED50) stood at 0.53 mg/kg. In addition, the EC50 at S1P1 receptor was 1.5 nM.

Turning to `Cc1cc(-c2nc(-c3ccc(CNCCC(=O)O)cc3)no2)ccc1-c1ccccc1C#N.Cl` [Example 78], it took a dose of 0.37 mg/kg to reach the 50% effect level with peripheral lymphocytes (ED50). Further, the EC50 on S1P1 receptor worked out at 0.26 nM.

Turning to `Cl.N#Cc1ccccc1-c1ccc(-c2nc(-c3ccc(CNCCC(=O)O)cc3)no2)cc1C#N` [Example 90], the ED50 in the test with peripheral lymphocytes was found to be 4.1 mg/kg. The same molecule yielded an EC50 at S1P1 receptor of 1.4 nM.

`Cl.N#Cc1ccccc1-c1ccc(-c2nc(-c3ccc(CNCCC(=O)O)cc3)no2)cc1C(F)(F)F` [Example 93] registered an ED50 in the test on peripheral lymphocytes of 0.64 mg/kg. This molecule also had an EC50 at S1P1 receptor of 0.48 nM.

As to `Cl.O=C(O)CCNCc1ccc(-c2noc(-c3ccc(-c4ccccc4)c(C(F)(F)F)c3)n2)cc1` [Example 94], it took a dose of 0.087 mg/kg to reach the 50% effect level in the test on peripheral lymphocytes (ED50). The molecule further gave an EC50 at S1P1 receptor of 0.25 nM.

As to `Cl.O=C(O)CCNCc1ccc(-c2noc(-c3ccc(CCC(F)(F)F)cc3)n2)cc1` [Example 104], the 50% effect level in the test with peripheral lymphocytes (ED50) was put at a dose of 0.7 mg/kg. The same molecule gave an EC50 on S1P1 receptor of 2.1 nM.

Consider `Cl.O=C(O)CCNCc1ccc(-c2noc(-c3ccc(-c4ccccc4)c(OC(F)(F)F)c3)n2)cc1` [Example 105], for which, in the test on peripheral lymphocytes, it took a dose of 0.084 mg/kg to reach the 50% effect level (ED50). Also, at S1P1 receptor, the EC50 was 0.49 nM.

Turning to `Cl.N#Cc1ccccc1-c1ccc(-c2nc(-c3ccc(CNCCC(=O)O)cc3)no2)cc1OC(F)(F)F` [Example 106], the 50% effect level in the test with peripheral lymphocytes (ED50) was put at a dose of 0.5 mg/kg. Further, the EC50 on S1P1 receptor was found to be 1.2 nM.

`Cc1cc(-c2nc(-c3ccc(CNCCC(=O)O)cc3)no2)ccc1-c1ccoc1.Cl` [Example 117] returned an ED50 in the test with peripheral lymphocytes of 0.88 mg/kg. On S1P1 receptor, this molecule gave a 50% effective concentration (EC50) of 0.07 nM.

As to `CC(C)Oc1ccc(-c2nc(-c3ccc(CN[C@H]4C[C@H](C(=O)O)C4)cc3)no2)cc1C(F)(F)F` [Example 135], the median effective dose (ED50) is 0.16 mg/kg in the test on peripheral lymphocytes and 0.21 mg/kg in the test on adjuvant arthritis rat. The molecule also yielded an EC50 at S1P1 receptor of 0.72 nM.

As to `Cc1cc(CNCCC(=O)O)ccc1-c1noc(-c2ccc(-c3ccccc3C#N)c(C)c2)n1` [Example 145], the 50% effect level in the test on peripheral lymphocytes (ED50) was put at a dose of 0.46 mg/kg. Moreover, the EC50 on S1P1 receptor was 0.2 nM.

In the test with peripheral lymphocytes, `Cc1cc(CNC2CC(C(=O)O)C2)ccc1-c1noc(-c2ccc(-c3ccccc3C#N)c(C)c2)n1` (stereo not shown) [Example 147] came in with an ED50 of 0.72 mg/kg. The concentration for a half-maximal effect (EC50) on S1P1 receptor was 2.4 nM.

`COc1cc(OCc2cc(-c3ccccc3)c(C(F)(F)F)s2)ccc1CNCCC(=O)O` [Example 150]: the response on S1P1 receptor was half-maximal at 37 nM (EC50).

`O=C(O)CCNCc1ccc(OCc2cc(-c3ccccc3)c(C(F)(F)F)s2)c(Br)c1` [Example 151] had an EC50 on S1P1 receptor of 27 nM.

`O=C(O)CCNCc1ccc(OCc2cc(-c3ccccc3)c(C(F)(F)F)s2)c(F)c1` [Example 152] had a concentration giving a half-maximal response (EC50) at S1P1 receptor of 6.4 nM.

Values taken from US20080200535A1, “Amine Compounds” (Asahi Kasei Pharma Corporation, priority 2006, published 2008).
